# From patent US20130310362A1, “FUSED PYRIMIDINES” (BAYER PHARMA AKTIEGESELLSCHAFT, priority 2009, published 2013)
# What was measured:
# [1] = target: T1, human recombinant kinase full-length Akt1 (Homo sapiens, UniProt P31749); experiment: Akt1 kinase assay (TR-FRET); format: biochemical; conditions: 10 μM ATP, 1 μM peptide substrate, 60 min at 22° C.; read-out: IC50 Akt1 Biological Assay 1.0)
# T1 construct: human recombinant kinase full-length Akt1; His; purchased Invitrogen PV 3599; host or cells: insect cells
# T1 sequence (P31749 whole entry): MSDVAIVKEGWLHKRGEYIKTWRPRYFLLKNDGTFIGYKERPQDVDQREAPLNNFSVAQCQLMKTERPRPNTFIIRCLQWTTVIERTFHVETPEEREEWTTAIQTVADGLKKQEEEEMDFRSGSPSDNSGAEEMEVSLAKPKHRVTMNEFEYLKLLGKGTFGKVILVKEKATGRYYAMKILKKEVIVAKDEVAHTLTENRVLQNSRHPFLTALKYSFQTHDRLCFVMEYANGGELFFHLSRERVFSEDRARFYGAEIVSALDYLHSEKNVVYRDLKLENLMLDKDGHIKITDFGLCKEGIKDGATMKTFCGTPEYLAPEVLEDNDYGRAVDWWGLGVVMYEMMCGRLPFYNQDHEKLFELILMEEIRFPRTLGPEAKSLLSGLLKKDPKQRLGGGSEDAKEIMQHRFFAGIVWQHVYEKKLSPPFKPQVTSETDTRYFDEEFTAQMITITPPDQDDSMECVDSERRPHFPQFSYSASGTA
# Excerpt: Biological Assay 1.0: Akt1 Kinase Assay
# Akt1 inhibitory activity of compounds of the present invention may be quantified employing the Akt1 TR-FRET assay as described in the following paragraphs.
# His-tagged human recombinant kinase full-length Akt1 expressed in insect cells was purchased form Invitrogen (part number PV 3599). As substrate for the kinase reaction the biotinylated peptide biotin-Ahx-KKLNRTLSFAEPG (C-terminus in amide form) was used which can be purchased e.g. from the company Biosynthan GmbH (Berlin-Buch, Germany).
# (§1) For the assay 50 nl of a 100 fold concentrated solution of the test compound in DMSO was pipetted into a black low volume 384 well microtiter plate (Greiner Bio-One, Frickenhausen, Germany), 2 μl of a solution of Akt1 in assay buffer [50 mM TRIS/HCl pH 7.5, 5 mM MgCl2, 1 mM dithiothreitol, 0.02% (v/v) Triton X-100 (Sigma)] were added and the mixture was incubated for 15 min at 22° C. to allow pre-binding of the test compounds to the enzyme before the start of the kinase reaction. Then the kinase reaction was started by the addition of 3 μl of a solution of adenosine-tri-phosphate (ATP, 16.7 μM=>final conc. in the 5 μl assay volume is 10 μM) and substrate (1.67 μM=>final conc. in the 5 μl assay volume is 1 μM) in assay buffer and the resulting mixture was incubated for a reaction time of 60 min at 22° C. The concentration of Akt1 in the assay was adjusted depending of the activity of the enzyme lot and was chosen appropriate to have the assay in the linear range, typical enzyme concentrations were in the range of about 0.05 ng/μl (final conc. in the 5 μl assay volume).
# (§2) The reaction was stopped by the addition of 5 μl of a solution of HTRF detection reagents (200 nM streptavidine-XL665 [Cisbio] and 1.5 nM anti-phosho-Serine antibody [Millipore, cat. #35-001] and 0.75 nM LANCE Eu-W 1024 labeled anti-mouse IgG antibody [Perkin Elmer]) in an aqueous EDTA-solution (100 mM EDTA, 0.1% (w/v) bovine serum albumin in 50 mM HEPES/NaOH pH 7.5). The resulting mixture was incubated 1 h at 22° C. to allow the binding of the biotinylated phosphorylated peptide to the streptavidine-XL665 and the antibodies. Subsequently the amount of phosphorylated substrate was evaluated by measurement of the resonance energy transfer from the anti-mouse-IgG-Eu-Chelate to the streptavidine-XL665. Therefore, the fluorescence emissions at 620 nm and 665 nm after excitation at 350 nm was measured in a HTRF reader, e.g. a Rubystar (BMG Labtechnologies, Offenburg, Germany) or a Viewlux (Perkin-Elmer). The ratio of the emissions at 665 nm and at […] was taken as the measure for the amount of phosphorylated substrate. The data were normalised (enzyme reaction without inhibitor=0% inhibition, all other assay components but no enzyme=100% inhibition). Normally test compound were tested on the same microtiter plate at 10 different concentrations in the range of 20 μM to 1 nM (20 μM, 6.7 μM, 2.2 μM, 0.74 μM, 0.25 μM, 82 nM, 27 nM, 9.2 nM, 3.1 nM and 1 nM, dilution series prepared before the assay at the level of the 100 fold conc. stock solutions by serial 1:3 dilutions) in duplicate values for each concentration and 1050 values were calculated by a 4 parameter fit using an inhouse software.
# [2] = target: T2, human recombinant kinase full-length Akt2 (Homo sapiens, UniProt P31751); experiment: Akt2 kinase assay (TR-FRET); format: biochemical; conditions: Akt2 activated by PDK1, 10 μM ATP, 1 μM peptide substrate, 60 min at 22° C.; read-out: IC50 Akt2 (Biological Assay 2.0)
# T2 construct: human recombinant kinase full-length Akt2; His; purchased Invitrogen PV 3975; host or cells: insect cells
# T2 sequence (P31751 whole entry): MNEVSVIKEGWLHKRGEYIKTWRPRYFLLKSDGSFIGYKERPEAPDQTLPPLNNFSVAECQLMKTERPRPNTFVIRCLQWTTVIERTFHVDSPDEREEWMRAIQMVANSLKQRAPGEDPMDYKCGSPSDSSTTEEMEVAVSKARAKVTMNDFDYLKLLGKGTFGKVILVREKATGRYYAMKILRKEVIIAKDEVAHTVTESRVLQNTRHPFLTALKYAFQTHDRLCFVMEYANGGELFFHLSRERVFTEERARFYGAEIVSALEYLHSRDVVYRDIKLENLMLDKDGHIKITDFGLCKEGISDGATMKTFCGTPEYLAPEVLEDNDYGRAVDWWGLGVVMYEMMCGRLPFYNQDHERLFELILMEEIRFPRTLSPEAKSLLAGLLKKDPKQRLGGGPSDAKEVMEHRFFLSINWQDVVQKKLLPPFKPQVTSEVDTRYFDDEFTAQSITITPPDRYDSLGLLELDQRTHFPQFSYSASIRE
# Excerpt: Biological Assay 2.0: Akt2 Kinase Assay
# Akt2 inhibitory activity of compounds of the present invention was quantified employing the Akt2 TR-FRET assay as described in the following paragraphs.
# as §1, with “His-tagged human recombinant kinase full-length Akt2 expressed in insect cells and activated by PDK1 was purchased form Invitrogen (part number PV 3975). As substrate for the kinase reaction the biotinylated peptide biotin-Ahx-KKLNRTLSFAEPG (C-terminus in amide form) was used which can be purchased e.g. from the company Biosynthan GmbH (Berlin-Buch, Germany). For” for “For”, “Akt2” for “Akt1”, “0.2” for “0.05”
# as §2, with “a TR-FRET” for “a HTRF”, “inhibition).” for “inhibition). Normally test compound were tested on the same microtiter plate at 10 different concentrations in the range of 20 μM to 1 nM (20 μM, 6.7 μM, 2.2 μM, 0.74 μM, 0.25 μM, 82 nM, 27 nM, 9.2 nM, 3.1 nM and 1 nM, dilution series prepared before the assay at the level of the 100 fold conc. stock solutions by serial 1:3 dilutions) in duplicate values for each concentration and 1050 values were calculated by a 4 parameter fit using an inhouse software.”
# [3] = system: Akt phosphorylation (Ser473) in MCF7 cells; experiment: Cellular PI3K/Akt pathway assay (Phospho-Akt1 (Ser473) sandwich ELISA); format: cell-based; conditions: Homo sapiens, β-Heregulin stimulated, 48 h incubation, read-out: IC50 p-Akt (Biological Assay 5.0)
# Experimental: Biological Assay 5.0: Cellular PI3K/Akt Pathway Assay
# In order to study the cellular activity of the compounds according to the present invention, an Enzyme Linked Immunosorbent Assay (ELISA)-based assay may be used to investigate the inhibitory effect on Akt phosphorylation.
# The ELISA Kit detects endogenous levels of phosphorylated Akt protein. […] After incubation with cell lysates, the coated antibody captures the phosphorylated Akt protein. […] The magnitude of optical density for this developed color is proportional to the quantity of phosphorylated Akt protein. MCF7 cells (ATCC HTB-22) are seeded into 96 well fate bottom plates at a density of 10000 cells/well. 24 hours after seeding, the cells are serum starved using low-serum medium (IMEM media including 0.1% charcoal treated FCS (FCS: fetal calf serum)). After 24 hours 1 μl each of the compound dilutions (test compounds were dissolved as 10 mM solutions in dimethylsulfoxide (DMSO) and subsequently diluted) are added into each well of the 96 well plates and incubated for 48 h at 37° C. in a humidified athmosphere containing 5% CO2. To stimulate Akt phosphorylation, β-Heregulin (20 ng/mL β-HRG) is added in parallel to the compounds. Wells containing unstimulated control cells (no β-Heregulin stimulation) are incubated with or without the diluted compound. Wells containing untreated control cells (no compound) are filled with medium containing 0.5% v:v DMSO and are or are not stimulated with 3-Heregulin.
# Cells are harvested and lysed with brief sonification in 1× cell lysis buffer (20 mM Tris (pH7.5), 150 mM NaCl, 1 mM ethylene diaminetetraacetate (EDTA), 1 mM ethylene glycolbis(2-aminoethyl)-N,N,N′,N′-tetraacetic acid (EGTA), 1 vol % Triton X-100, 2.5 mM sodium pyrophosphate, 1 mM β-glycerolphosphate, 1 mM Na3VO4, 1 μg/mL leupeptin). The lysate is centrifuged for 10 min. at 4° C. and the supernatant is transferred to a new tube. […] The absorbance is measured at λ=450 nm (Wallac Victor2; Perkin Elmer, USA) within 30 min. after adding the STOP solution. […]
IC50 [1],IC50 [2],IC50 [3],SMILES
3 nM,27 nM,–,"Cc1ccc(-c2nc(C3CCN(Cc4ccc(-c5nc(C)n6ccnc6c5-c5ccccc5)cc4)CC3)n[nH]2)nc1C [Example 5.0, 7-(4-{4-[5-(5,6-dimethyl-pyridin-2-yl)-1H-[1,2,4]triazol-3-yl]-piperidin-1-ylmethyl}-phenyl)-5-methyl-8-phenyl-imidazo[1,2-c]pyrimidine]"
3 nM,81 nM,–,"Cc1nc(-c2ccc(CN3CC(c4n[nH]c(-c5ccccn5)n4)C3)cc2)c(-c2ccccc2)c2nccn12 [Example 6.0, 5-methyl-8-phenyl-7-{4-[3-(5-pyridin-2-yl-1H-[1,2,4]triazol-3-yl)-azetidin-1-ylmethyl]-phenyl}-imidazo[1,2-c]pyrimidine]"
12 nM,334 nM,–,"Cc1nc(-c2ccc(CN3CCC(c4n[nH]c(-c5cnccn5)n4)CC3)cc2)c(-c2ccccc2)c2nccn12 [Example 7.0, 5-methyl-8-phenyl-7-{4-[4-(5-pyrazin-2-yl-1H-[1,2,4]triazol-3-yl)-piperidin-1-ylmethyl]-phenyl}-imidazo[1,2-c]pyrimidine]"
–,–,< 500 nM,"Cc1nnc2c(-c3ccccc3)c(-c3ccc(CN4CCC(c5n[nH]c(-c6ccccn6)n5)CC4)cc3)ncn12 [Example 4.0, 3-methyl-8-phenyl-7-{4-[4-(5-pyridin-2-yl-1H-[1,2,4]triazol-3-yl)-piperidin-1-ylmethyl]-phenyl}-[1,2,4]triazolo[4,3-c]pyrimidine]"
29 nM,445 nM,–,"c1ccc(-c2c(-c3ccc(CN4CCC(c5n[nH]c(-c6cnccn6)n5)CC4)cc3)ncn3ccnc23)cc1 [Example 11.0, 8-phenyl-7-{4-[4-(5-pyrazin-2-yl-1H-[1,2,4]triazol-3-yl)-piperidin-1-ylmethyl]-phenyl}-imidazo[1,2-c]pyrimidine]"
16 nM,132 nM,–,"Clc1cccc(-c2nc(C3CCN(Cc4ccc(-c5ncn6ccnc6c5-c5ccccc5)cc4)CC3)n[nH]2)n1 [Example 13.0, 7-(4-{4-[5-(6-chloro-pyridin-2-yl)-1H-[1,2,4]triazol-3-yl]-piperidin-1-ylmethyl}-phenyl)-8-phenyl-imidazo[1,2-c]pyrimidine]"
7 nM,16 nM,–,"Cc1cc(C)nc(-c2nc(C3CCN(Cc4ccc(-c5ncn6ccnc6c5-c5ccccc5)cc4)CC3)n[nH]2)c1 [Example 14.0, 7-(4-{4-[5-(4,6-dimethyl-pyridin-2-yl)-1H-[1,2,4]triazol-3-yl]-piperidin-1-ylmethyl}-phenyl)-8-phenyl-imidazo[1,2-c]pyrimidine]"
19 nM,98 nM,–,"Fc1ccc(-c2nc(C3CCN(Cc4ccc(-c5ncn6ccnc6c5-c5ccccc5)cc4)CC3)n[nH]2)nc1 [Example 11.1, 7-(4-{4-[5-(5-fluoro-pyridin-2-yl)-1H-[1,2,4]triazol-3-yl]-piperidin-1-ylmethyl}-phenyl)-8-phenyl-imidazo[1,2-c]pyrimidine]"
8 nM,50 nM,–,"Cc1ccc(-c2nc(C3CCN(Cc4ccc(-c5ncn6ccnc6c5-c5ccccc5)cc4)CC3)n[nH]2)nc1 [Example 12.0, 7-(4-{4-[5-(5-methyl-pyridin-2-yl)-1H-[1,2,4]triazol-3-yl]-piperidin-1-ylmethyl}-phenyl)-8-phenyl-imidazo[1,2-c]pyrimidine]"
14 nM,414 nM,–,"Cc1nc(-c2ccc(CN3CCC(c4n[nH]c(-c5ncccn5)n4)CC3)cc2)c(-c2ccccc2)c2nccn12 [Example 8.0, 5-methyl-8-phenyl-7-{4-[4-(5-pyrimidin-2-yl-1H-[1,2,4]triazol-3-yl)-piperidin-1-ylmethyl]-phenyl}-imidazo[1,2-c]pyrimidine]"
7 nM,38 nM,–,"Cc1ccc(-c2nc(C3CCN(Cc4ccc(-c5ncn6ccnc6c5-c5ccccc5)cc4)CC3)n[nH]2)nc1C [Example 10.0, 7-(4-{4-[5-(5,6-dimethyl-pyridin-2-yl)-1H-[1,2,4]triazol-3-yl]-piperidin-1-ylmethyl}-phenyl)-8-phenyl-imidazo[1,2-c]pyrimidine]"
18 nM,185 nM,–,"Brc1ccc(-c2nc(C3CCN(Cc4ccc(-c5ncn6ccnc6c5-c5ccccc5)cc4)CC3)n[nH]2)nc1 [Example 9.0, 7-(4-{4-[5-(5-bromo-pyridin-2-yl)-1H-[1,2,4]triazol-3-yl]-piperidin-1-ylmethyl}-phenyl)-8-phenyl-imidazo[1,2-c]pyrimidine]"
12 nM,52 nM,–,"c1ccc(-c2c(-c3ccc(CN4CC(c5n[nH]c(-c6ccccn6)n5)C4)cc3)ncn3ccnc23)cc1 [Example 16.0, 8-phenyl-7-{4-[3-(5-pyridin-2-yl-1H-[1,2,4]triazol-3-yl)-azetidin-1-ylmethyl]-phenyl}-imidazo[1,2-c]pyrimidine]"
22 nM,222 nM,–,"FC(F)(F)c1ccnc(-c2nc(C3CCN(Cc4ccc(-c5ncn6ccnc6c5-c5ccccc5)cc4)CC3)n[nH]2)c1 [Example 15.0, 8-phenyl-7-(4-{4-[5-(4-trifluoromethyl-pyridin-2-yl)-1H-[1,2,4]triazol-3-yl]-piperidin-1-ylmethyl}-phenyl)-imidazo[1,2-c]pyrimidine]"
